What all share (type): functional
For test [1], the system named is Bemisia tabaci. The experiment in a line: Insecticidal activity against Bemisia tabaci UNSEL G11 (sweet potato whitefly) from 11 generation buprofezin resistance assessed as mortality measured after 18 to 20 days.
For test [2], the system named is Bemisia tabaci. Description: Insecticidal activity against Bemisia tabaci Bupro-SEL (sweet potato whitefly) from 20 generation buprofezin resistance assessed as mortality measured after 18 to 20 days.
The subject of test [3] is Bemisia tabaci. Description: Insecticidal activity against Bemisia tabaci (sweet potato whitefly) susceptible Lab-PK assessed as mortality measured after 18 to 20 days.
Test [4] deals with Bemisia tabaci. Description: Insecticidal activity against Bemisia tabaci Bupro-SEL (sweet potato whitefly) from 10 generation buprofezin resistance assessed as mortality measured after 18 to 20 days.
In test [5] the test system is Bemisia tabaci. The experiment in a line: Insecticidal activity against Bemisia tabaci (sweet potato whitefly) from one generation buprofezin resistance G1 assessed as mortality measured after 18 to 20 days.
Test [6] concerns Bemisia tabaci. The experiment in a line: Insecticidal activity against Bemisia tabaci F1 (sweet potato whitefly) pooled assessed as mortality measured after 18 to 20 days.
The test system of test [7] is Bemisia tabaci. The experiment in a line: Insecticidal activity against Bemisia tabaci F1 (sweet potato whitefly) pooled/Bupro-SEL hybrid assessed as mortality measured after 18 to 20 days.
In test [8] the test system is Bemisia tabaci. Description: Insecticidal activity against Bemisia tabaci Bupro-SEL (sweet potato whitefly) female/Lab-PK male hybrid assessed as mortality measured after 18 to 20 days.
For test [9], the system named is Bemisia tabaci. The experiment in a line: Insecticidal activity against Bemisia tabaci Bupro-SEL (sweet potato whitefly) male/Lab-PK female hybrid assessed as mortality measured after 18 to 20 days.

For the compound `C/C(=N\C#N)N(C)Cc1ccc(Cl)nc1` [ACETAMIPRID], the LC50 with Bemisia tabaci [1] is recorded as 0.36 ugAi/ml; with Bemisia tabaci [2], 0.4 ugAi/ml; in the test on Bemisia tabaci [3], 0.39 ugAi/ml; in the test with Bemisia tabaci [4] it was 4.04 ugAi/ml; in the test with Bemisia tabaci [5] it was 2.21 ugAi/ml.

In the case of `CC(C)N1C(=O)N(c2ccccc2)CS/C1=N\C(C)(C)C` [BUPROFEZIN], the LC50 with Bemisia tabaci [1] was found to be 0.25 ugAi/ml; with Bemisia tabaci [6], 4.86 ugAi/ml; in the test on Bemisia tabaci [2], 115.2 ugAi/ml; in the test on Bemisia tabaci [3], 0.2 ugAi/ml; in the test on Bemisia tabaci [7], 62.6 ugAi/ml; with Bemisia tabaci [8] it was 5.11 ugAi/ml. Also, the LC50 was 1400 ugAi/ml with Bemisia tabaci [4], 4.41 ugAi/ml with Bemisia tabaci [9] and 1.41 ugAi/ml with Bemisia tabaci [5].

With `CC(COc1ccc(Oc2ccccc2)cc1)Oc1ccccn1` (centres undefined) [PYRIPROXYFEN], the LC50 is given as 0.52 ugAi/ml with Bemisia tabaci [1]; 1.63 ugAi/ml with Bemisia tabaci [2]; 0.6 ugAi/ml in the test with Bemisia tabaci [3]; 51.54 ugAi/ml with Bemisia tabaci [4]; 1.81 ugAi/ml in the test with Bemisia tabaci [5].

Turning to `CCOC(=O)OC1=C(c2cc(C)ccc2C)C(=O)N[C@]12CC[C@@H](OC)CC2` [SPIROTETRAMAT], the LC50 with Bemisia tabaci [1] amounted to 0.1 ugAi/ml; in the test with Bemisia tabaci [2] it was 0.11 ugAi/ml; in the test with Bemisia tabaci [3] it was 0.17 ugAi/ml; in the test on Bemisia tabaci [4], 1.04 ugAi/ml; in the test with Bemisia tabaci [5], 0.7 ugAi/ml.

With `O=[N+]([O-])/N=C1\NCCN1Cc1ccc(Cl)nc1` [IMIDACLOPRID], the LC50 in the test with Bemisia tabaci [1] is 0.2 ugAi/ml; in the test with Bemisia tabaci [2] it was 0.17 ugAi/ml; in the test on Bemisia tabaci [3], 0.09 ugAi/ml; with Bemisia tabaci [4], 2.18 ugAi/ml; in the test on Bemisia tabaci [5], 1.29 ugAi/ml.

The record behind these values is ChEMBL document CHEMBL3046142, “Cross resistance, genetic analysis and stability of resistance to buprofezin in cotton whitefly, Bemisia tabaci (Homoptera: Aleyrodidae)” (2012).
